From ChEMBL document CHEMBL3596161, “Progress Toward the Development of Noscapine and Derivatives as Anticancer Agents” (J Med Chem, 2015)

How the values were obtained:
Tubulin = experiment: Binding affinity to tubulin (unknown origin); format: protein-complex assay, Homo sapiens
Tubulin (Homo sapiens) [1] = molecular target: T1, Tubulin (Homo sapiens) (UniProt P68371+Q9H4B7+P0DPH7+P68366+Q13509+Q71U36+P04350+Q3ZCM7+P07437+P68363+Q9BQE3+Q6PEY2+Q13885+Q9BVA1+Q9BUF5); experiment: Inhibition of colchicine binding to tubulin (unknown origin) at 100 uM; format: protein-complex assay
Tubulin (Homo sapiens) [2] = molecular target: T1, Tubulin (Homo sapiens); experiment: Inhibition of colchicine binding to tubulin (unknown origin) at 50 uM; format: protein-complex assay
Tubulin (Homo sapiens) [3] = molecular target: T1, Tubulin (Homo sapiens); experiment: Inhibition of colchicine binding to tubulin (unknown origin) at 25 uM; format: protein-complex assay
[4] = Cytotoxicity against human Non-small cell lung cancer cell; format: functional, cell-based; conditions: Cancer cell lines
CCRF-CEM [5] = experiment: Cell cycle arrest in human CEM cells assessed as accumulation at G2/M phase; format: functional
[6] = Cell cycle arrest in human CCRF-CEM/VLB100 cells assessed as accumulation at G2/M phase; format: functional, cell-based
CCRF-CEM [7] = experiment: Cell cycle arrest in human CEM cells assessed as accumulation at sub-G1 phase by measuring 2N DNA content after 72 hrs; format: functional
[8] = Cell cycle arrest in human CCRF-CEM/VLB100 cells assessed as accumulation at sub-G1 phase by measuring 2N DNA content after 72 hrs; format: functional, cell-based
[9] = Induction of apoptosis in human CCRF-CEM/VLB100 cells assessed as reduction of mitochondrial potential after 24 hrs; format: functional; set-up: scale not given: the % may be the effect or the level left
[10] = Induction of apoptosis in human CCRF-CEM/VLB100 cells assessed as reduction of mitochondrial potential after 72 hrs; format: functional; set-up: scale not given: the % may be the effect or the level left
CCRF-CEM [11] = experiment: Antitumor activity against human CEM cells xenografted in mouse assessed as reduction of tumor at 300 mg/kg/day, po administered for 26 days; format: functional; conditions: 624 h, read-out: GI
CCRF-CEM [12] = experiment: Antitumor activity against human CEM cells xenografted in mouse assessed as reduction of tumor at 10 mg/kg/day, iv administered for 26 days; format: functional; conditions: 624 h, read-out: GI
[13] = Antitumor activity against human CCRF-CEM/VLB100 cells xenografted in mouse assessed as reduction of tumor at 300 mg/kg/day, po administered for 32 days; format: functional; conditions: 768 h, read-out: GI
HeLa [14] = experiment: Antimitotic activity against human HeLa cells; format: functional, cell-based
HeLa [15] = experiment: Cell cycle arrest in human HeLa cells assessed as accumulation at G2/M phase by measuring 4N DNA content at 6.4 uM by flow cytometry; format: functional
Tubulin (Homo sapiens) [16] = molecular target: T1, Tubulin (Homo sapiens); experiment: Inhibition of MAPs-rich tubulin (unknown origin) polymerization at 50 uM; format: protein-complex assay
CCRF-CEM [17] = experiment: Cytotoxicity against human CEM cells; format: functional, cell-based
HeLa [18] = experiment: Cytotoxicity against human HeLa cells; format: functional, cell-based
A549 = experiment: Cytotoxicity against human A549 cells; format: functional, cell-based
MCF7 = experiment: Cytotoxicity against human MCF7 cells; format: functional, cell-based

Row | Compound | IC50 (CCRF-CEM [17]) | IC50 (HeLa [18]) | IC50 (A549) | IC50 (MCF7) | other results
1 | COc1ccc2c(c1OC)C(=O)O[C@@H]2[C@H]1c2c(c(Br)c3c(c2OC)OCO3)CCN1C |  |  |  |  | Kd (Tubulin): 54 µM; inhibition (Tubulin (Homo sapiens) [1]): 66%; inhibition (Tubulin (Homo sapiens) [2]): 40%; inhibition (Tubulin (Homo sapiens) [3]): 23%; IC50 [4]: 4 µM; Activity (CCRF-CEM [5]): 45%; Activity [6]: 47%; Activity (CCRF-CEM [7]): 57%; Activity [8]: 75%; Activity [9]: 49%; Activity [10]: 99%; inhibition in vivo at 300 mg/kg/day (CCRF-CEM [11]): 80%; inhibition in vivo at 10 mg/kg/day (CCRF-CEM [12]): 80%; inhibition in vivo at 300 mg/kg/day [13]: 81%; EC50 (HeLa [14]): 7.7 µM; Activity (HeLa [15]): 51.8%
2 | COc1ccc2c(c1OCCCCS(=O)(=O)O)C(=O)O[C@@H]2[C@H]1c2c(c(Br)c3c(c2OC)OCO3)CCN1C |  |  |  |  | inhibition (Tubulin (Homo sapiens) [16]): 68%
3 | COc1cccc(CN2CCc3cc4c(c(OC)c3[C@@H]2[C@H]2OC(=O)c3c2ccc(OC)c3OC)OCO4)c1 | 6.7 µM | 15.3 µM | 26.9 µM | 24.5 µM | 
4 | COc1ccc2c(c1OCCCCS(=O)(=O)O)C(=O)O[C@@H]2[C@H]1c2c(cc3c(c2OC)OCO3)CCN1C |  |  |  |  | inhibition (Tubulin (Homo sapiens) [16]): 74%
5 | COc1ccc2c(c1OC)CO[C@@H]2[C@H]1c2c(c(Br)c3c(c2OC)OCO3)CCN1C |  |  |  |  | Kd (Tubulin): 106 µM; EC50 (HeLa [14]): 3.6 µM; Activity (HeLa [15]): 72.7%
6 | COc1ccc2c(c1OC)C(=O)O[C@@H]2[C@H]1c2c(cc3c(c2OC)OCO3)CCN1Cc1cccc(Cl)c1 | 11.9 µM | 28.3 µM | 61.3 µM | 45.8 µM | 
7 | COc1ccc2c(c1OC)C(=O)O[C@@H]2[C@H]1c2c(cc3c(c2OC)OCO3)CCN1CC(C)=O | 6.9 µM | 15.8 µM | 28 µM | 25.3 µM | 
8 | CCOC(=O)CN1CCc2cc3c(c(OC)c2[C@@H]1[C@H]1OC(=O)c2c1ccc(OC)c2OC)OCO3 | 13.6 µM | 32.4 µM | 72.3 µM | 52.6 µM | 
9 | COc1ccc(CN2CCc3cc4c(c(OC)c3[C@@H]2[C@H]2OC(=O)c3c2ccc(OC)c3OC)OCO4)cc1 | 7.7 µM | 17.9 µM | 33.5 µM | 28.7 µM | 
10 | COC(=O)CN1CCc2cc3c(c(OC)c2[C@@H]1[C@H]1OC(=O)c2c1ccc(OC)c2OC)OCO3 | 9.5 µM | 22.3 µM | 45.4 µM | 36 µM | 
11 | COc1ccc2c(c1OC)C(=O)O[C@@H]2[C@@H]1NCCc2cc3c(c(OC)c21)OCO3 | 8.9 µM | 20.9 µM | 41.6 µM | 33.6 µM | 
